Columns and labels:
Type in all cases: in vivo
Lolium rigidum [1] = assay: Post-emergence herbicidal action against Lolium rigidum
Text: (§1) The following abbreviations are used in the description and the tables that follow: • g of a.i./ha=grams of active substance (active ingredient) (=100% active compound) per hectare; • The sum total of the effects of the individual applications is reported under E^A; • expected values according to Colby are each reported under E^C.
(§2) The rating period is reported in days after application (DAT).

Phalaris minor [2] = assay: Post-emergence herbicidal action against Phalaris minor
[3] = tested on: Lolium rigidum (resistant biotype); assay: Post-emergence herbicidal action against Lolium rigidum (resistant biotype)
Poa annua = assay: Post-emergence herbicidal action against Poa annua
In short: (§3)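 Post-emergence foliar application: sandy-loam pots, greenhouse, treatment at three-leaf stage, 300–800 l/ha spray volume. Readout is visual % effect at 3–4 weeks, compared with the Colby expected value for mixtures.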

Galium aparine = assay: Post-emergence herbicidal action against Galium aparine; conditions: for Herbicidal action: 28 DAT
In short: as §3

Centaurea cyano = assay: Post-emergence herbicidal action against Centaurea cyano
In short: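 Greenhouse pot-grown plants sprayed post-emergence at the three-leaf stage, three weeks after sowing, with spray-powder or emulsion-concentrate formulations at various dosages in 300 to 800 l/ha water on green parts.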

Veronica hederifolia = assay: Post-emergence herbicidal action against Veronica hederifolia; conditions: 0.17 g of a.i./ha
Alopecurus myosuroides = assay: Post-emergence herbicidal action against Alopecurus myosuroides
Text: as §1, §2

Bromus sterilis [4] = assay: Post-emergence herbicidal action against Bromus sterilis
Text: as §1, §2

Matricaria inodora = assay: Post-emergence herbicidal action against Matricaria inodora; conditions: for Herbicidal action: 1 g a.i./ha
Lamium purpureum = assay: Post-emergence herbicidal action against Lamium purpureum; conditions: for Herbicidal action: 1 g a.i./ha
Method: When the observed efficacies exceed the formal sum total of the values of the tests with individual applications, they also exceed the expected value according to Colby, which is calculated using the formula below and is likewise regarded as an indication of synergism (cf. S. R. Colby; in Weeds 15 (1967) p. 20 to 22): E^C=A+B−([…])
Here: • A=efficacy of the active compound (A) in % at an application rate of a g a.i./ha; • B=efficacy of the active compound (B) in % at an application rate of b g a.i./ha; • E^C=expected value of the effect of the combination (A)+(B) in % at the combined application rate a+b g a.i./ha.
Seeds or rhizome pieces of mono- and dicotyledonous weeds are placed in sandy loam in pots, covered with soil and grown in a greenhouse under good growth conditions (temperature, air humidity, water supply). Three weeks after sowing, the test plants were treated at the three-leaf stage with the compositions according to the invention. The compositions according to the invention formulated as spray powders or as emulsion concentrates were sprayed onto the green plant parts in various dosages with an application rate of 300 to 800 l/ha of water (equivalent). After the test plants have been left to stand in the greenhouse under optimal growth conditions for about 3 to 4 weeks, the action of the preparations is scored visually in comparison to untreated controls. The compositions according to the invention also have good post-emergence herbicidal activity against a broad spectrum of economically important gramineous and broadleaf weeds.

Viola tricolor [5] = assay: Post-emergence herbicidal action against Viola tricolor; conditions: (Z119) post-emergence; g of a.i./ha: 16, 270, 16 + 270
Text: as §1, §2

Bromus sterilis [6] = assay: Post-emergence herbicidal action against Bromus sterilis; remark: listed apart in the source
Phalaris minor [7] = assay: Post-emergence herbicidal action against Phalaris minor; conditions: (Z119) post-emergence; for Herbicidal action 28 DAT against Phalaris minor: g of a.i./ha: 16, 4, 270, 90, 30, 16 + 270, 16 + 90, 16 + 30, 4 + 270, 4 + 30
In short: (§4)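 Assessment time was recorded as days after application. Activity for mixtures was set against E^C, the Colby expected value, and against E^A, the total of the effects from each component applied alone; application rates were in g of active substance per hectare.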

Lolium rigidum [8] = assay: Post-emergence herbicidal action against Lolium rigidum; remark: listed apart in the source
[9] = tested on: Lolium rigidum (resistant biotype); assay: Post-emergence herbicidal action against Lolium rigidum (resistant biotype); conditions: (Z119) post-emergence; g of a.i./ha: 1, 270, 1 + 270
In short: as §4

Viola tricolor [10] = assay: Post-emergence herbicidal action against Viola tricolor
Phalaris minor [11] = assay: Post-emergence herbicidal action against Phalaris minor; remark: listed apart in the source

COc1nn(C(=O)NS(=O)(=O)c2c(C(=O)O)csc2C)c(=O)n1C [(B2.68) Thiencarbazone]
Herbicidal action 14 DAT against Lolium rigidum (Lolium rigidum [1]; 0.5 g of a.i./ha): 60% | Herbicidal action 28 DAT against Lolium rigidum (Lolium rigidum [1]; 0.5 g of a.i./ha): 10% | Herbicidal action 14 DAT against Lolium rigidum (Lolium rigidum [1]; 1.5 g of a.i./ha): 85% | Herbicidal action 28 DAT against Lolium rigidum (Lolium rigidum [1]; 1.5 g of a.i./ha): 50% | Herbicidal action against Phalaris minor (Phalaris minor [2]; 14 DAT, 0.17 g of a.i./ha): 0% | Herbicidal action against Phalaris minor (Phalaris minor [2]; 14 DAT, 0.5 g of a.i./ha): 15% | Herbicidal action against Phalaris minor (Phalaris minor [2]; 14 DAT, 1.5 g of a.i./ha): 10% | Herbicidal action against Phalaris minor (Phalaris minor [2]; 28 DAT, 0.5 g of a.i./ha): 0% | Herbicidal action against Phalaris minor (Phalaris minor [2]; 28 DAT, 1.5 g of a.i./ha): 20% | Herbicidal action against Lolium rigidum (resistant biotype) ([3]; 14 DAT, 0.17 g of a.i./ha): 0% | Herbicidal action against Lolium rigidum (resistant biotype) ([3]; 14 DAT, 0.5 g of a.i./ha): 0% | Herbicidal action against Lolium rigidum (resistant biotype) ([3]; 14 DAT, 1.5 g of a.i./ha): 0% | Herbicidal action against Lolium rigidum (resistant biotype) ([3]; 28 DAT, 0.5 g of a.i./ha): 10% | Herbicidal action against Lolium rigidum (resistant biotype) ([3]; 28 DAT, 1.5 g of a.i./ha): 20% | Herbicidal action against Poa annua L. (Poa annua; 14 DAT, 0.5 g of a.i./ha): 10% | Herbicidal action against Poa annua L. (Poa annua; 14 DAT, 1.5 g of a.i./ha): 15% | Herbicidal action against Poa annua L. (Poa annua; 28 DAT, 0.5 g of a.i./ha): 0% | Herbicidal action against Poa annua L. (Poa annua; 28 DAT, 1.5 g of a.i./ha): 25% | Herbicidal action 14 DAT against Galium aparine (Galium aparine; 0.17 g of a.i./ha): 60% | Herbicidal action 28 DAT against Galium aparine (Galium aparine; 0.17 g of a.i./ha): 50% | Herbicidal action 14 DAT against Centaurea cyanus (Centaurea cyano; 0.17 g of a.i./ha): 0% | Herbicidal action 28 DAT against Centaurea cyanus (Centaurea cyano; 0.17 g of a.i./ha): 0% | Herbicidal action 28 DAT against Centaurea cyanus (Centaurea cyano; 1.5 g of a.i./ha): 35% | Herbicidal action against Veronica hederifolia (Veronica hederifolia; 14 DAT): 70% | Herbicidal action against Veronica hederifolia (Veronica hederifolia; 28 DAT): 70% | Herbicidal action 14 DAT against Alopecurus myosuroides (Alopecurus myosuroides; 0.5 g of a.i./ha): 40% | Herbicidal action 14 DAT against Alopecurus myosuroides (Alopecurus myosuroides; 1.5 g of a.i./ha): 35% | Herbicidal action 28 DAT against Alopecurus myosuroides (Alopecurus myosuroides; 1.5 g of a.i./ha): 30% | Herbicidal action 14 DAT against Bromus sterilis (Bromus sterilis [4]; 0.5 g of a.i./ha): 15% | Herbicidal action 28 DAT against Bromus sterilis (Bromus sterilis [4]; 0.5 g of a.i./ha): 15% | Herbicidal action 14 DAT against Bromus sterilis (Bromus sterilis [4]; 1.5 g of a.i./ha): 20% | Herbicidal action 28 DAT against Bromus sterilis (Bromus sterilis [4]; 1.5 g of a.i./ha): 20% | Herbicidal action against Matricaria inodora (Matricaria inodora; 14 DAT, 0.17 g of a.i./ha): 15% | Herbicidal action against Matricaria inodora (Matricaria inodora; 14 DAT, 0.5 g of a.i./ha): 50% | Herbicidal action against Matricaria inodora (Matricaria inodora; 28 DAT, 0.17 g of a.i./ha): 0% | Herbicidal action 28 DAT against Lamium purpureum L. (Lamium purpureum; 0.17 g of a.i./ha): 35%

C=C[C@]1(C(=O)N[C@@H]2C=C(C(=O)OC)OC2)CC(c2cc(F)cc(F)c2)=NO1 [Compound A5, methyl (3R)-3-[[(5S)-3-(3,5-difluorophenyl)-5-vinyl-4H-isoxazole-5-carbonyl]amino]-2,3-dihydrofuran-5-carboxylate]
Herbicidal action 28 DAT against Lolium rigidum (Lolium rigidum [1]; (Z119) post-emergence, g of a.i./ha: 16, 4, 1, 270, 90, 30, 16 + 270, 16 + 90, 16 + 30, 4 + 270, 4 + 90, 4 + 30, 1 + 270, 1 g of a.i./ha): 30% | Herbicidal action 28 DAT against Lolium rigidum (Lolium rigidum [1]; (Z119) post-emergence, g of a.i./ha: 16, 4, 1, 270, 90, 30, 16 + 270, 16 + 90, 16 + 30, 4 + 270, 4 + 90, 4 + 30, 1 + 270, 4 g of a.i./ha): 50% | Herbicidal action 28 DAT against Lolium rigidum (Lolium rigidum [1]; (Z119) post-emergence, g of a.i./ha: 16, 4, 1, 270, 90, 30, 16 + 270, 16 + 90, 16 + 30, 4 + 270, 4 + 90, 4 + 30, 1 + 270, 16 g of a.i./ha): 60% | Herbicidal action 14 DAT against Viola tricolor (Viola tricolor [5]): 60% | Herbicidal action (Bromus sterilis [6]; 14 DAT, 4 g a.i./ha): 75% | Herbicidal action (Bromus sterilis [6]; 14 DAT, 16 g a.i./ha): 80% | Herbicidal action (Bromus sterilis [6]; 28 DAT, 1 g a.i./ha): 30% | Herbicidal action 28 DAT against Phalaris minor (Phalaris minor [7]; 4 g of a.i./ha): 60% | Herbicidal action 28 DAT against Phalaris minor (Phalaris minor [7]; 16 g of a.i./ha): 70% | Herbicidal action 14 DAT against Phalaris minor (Phalaris minor [7]; g of a.i./ha: 16, 4, 270, 90, 270, 16 + 270, 16 + 90, 4 + 270): 85% | Herbicidal action (Poa annua; 14 DAT, 1 g a.i./ha): 30% | Herbicidal action (Poa annua; 14 DAT, 16 g a.i./ha): 70% | Herbicidal action (Poa annua; 28 DAT, 1 g a.i./ha): 20% | Herbicidal action (Lolium rigidum [8]; 14 DAT, 1 g a.i./ha): 30% | Herbicidal action (Lolium rigidum [8]; 14 DAT, resistant biotype, 1 g a.i./ha): 30% | Herbicidal action (Lolium rigidum [8]; 14 DAT, resistant biotype, 16 g a.i./ha): 70% | Herbicidal action (Lolium rigidum [8]; 28 DAT, 1 g a.i./ha): 30% | Herbicidal action (Lolium rigidum [8]; 28 DAT, 16 g a.i./ha): 60% | Herbicidal action (Lolium rigidum [8]; 28 DAT, resistant biotype, 1 g a.i./ha): 20% | Herbicidal action (Galium aparine; 1 g a.i./ha): 50% | Herbicidal action (Galium aparine; 16 g a.i./ha): 70% | Herbicidal action 14 DAT against Galium aparine (Galium aparine; (Z119) post-emergence, g of a.i./ha by row: 1, 30, 1 + 30): 60% | Herbicidal action (Centaurea cyano; 14 DAT, 1 g a.i./ha): 20% | Herbicidal action (Centaurea cyano; 28 DAT, 16 g a.i./ha): 75% | Herbicidal action 28 DAT against Centaurea cyanus (Centaurea cyano; (Z119) post-emergence, g of a.i./ha: 16, 270, 90, 30, 16 + 270, 16 + 90, 16 + 30): 75% | Herbicidal action 14 DAT against Alopecurus myosuroides (Alopecurus myosuroides; (Z119) post-emergence, g of a.i./ha: 16, 1, 270, 16 + 270, 1 + 270, 1 g of a.i./ha): 50% | Herbicidal action 14 DAT against Alopecurus myosuroides (Alopecurus myosuroides; (Z119) post-emergence, g of a.i./ha: 16, 1, 270, 16 + 270, 1 + 270, 16 g of a.i./ha): 85% | Herbicidal action 28 DAT against Lolium rigidum (resistant biotype) [9]: 20% | Herbicidal action (Viola tricolor [10]; 14 DAT, 16 g a.i./ha): 60% | Herbicidal action (Viola tricolor [10]; 28 DAT, 4 g a.i./ha): 40% | Herbicidal action (Viola tricolor [10]; 28 DAT, 16 g a.i./ha): 40% | Herbicidal action (Phalaris minor [11]; 14 DAT, 1 g a.i./ha): 60% | Herbicidal action (Phalaris minor [11]; 14 DAT, 16 g a.i./ha): 85% | Herbicidal action (Phalaris minor [11]; 28 DAT, 1 g a.i./ha): 30% | Herbicidal action (Phalaris minor [11]; 28 DAT, 16 g a.i./ha): 70% | Herbicidal action 28 DAT against Bromus sterilis (Bromus sterilis [4]; (Z119) post-emergence, g of a.i./ha: 1, 270, 1 + 270): 30% | Herbicidal action 14 DAT against Bromus sterilis (Bromus sterilis [4]; (Z119) post-emergence, g of a.i./ha: 1, 270, 90, 1 + 270, 1 + 90): 50% | Herbicidal action (Matricaria inodora; 14 DAT): 30% | Herbicidal action (Matricaria inodora; 28 DAT): 10% | Herbicidal action (Lamium purpureum; 14 DAT): 60% | Herbicidal action (Lamium purpureum; 28 DAT): 40% | Herbicidal action 14 DAT against Lamium purpureum L. (Lamium purpureum; (Z119) post-emergence, g of a.i./ha by row: 16, 30, 16 + 30): 80%

Reference: patent US12171230B2, “Herbicidal compositions” (Bayer Aktiengesellschaft, priority 2018, dated 2024)
